The text below walks through data of PubChem BioAssay (NCI).

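Exposure lasted 48 hours, with cells grown in 96-well plates and compounds tested at five concentrations. GI50: concentration for 50% inhibition of growth. TGI denotes the concentration required for complete inhibition of growth.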

Among the test systems are OVCAR-4 ovarian; SNB-19 CNS; A498 renal; RXF 393 renal; MDA-MB-231 breast; RPMI-8226 leukemia; BT-549 breast; TK-10 renal; MDA-N; OVCAR-5 ovarian; SK-MEL-28 melanoma; HCC-2998 colon; SR leukemia; LOX IMVI melanoma; MALME-3M melanoma; HCT-116 colon; HT29 colon.
Assay in all cases: inhibition of tumour cell growth, NCI panel, 48 h

Regarding `Cc1ccc(-c2csc(=Nc3c(C)n(C)n(-c4ccccc4)c3=O)n2CCO)cc1`, the TGI in the assay with OVCAR-4 ovarian, with SNB-19 CNS, in the assay with A498 renal, with RXF 393 renal, in the assay on MDA-MB-231 breast and with RPMI-8226 leukemia was more than 100 µM in each case. Moreover, the TGI in the assay with BT-549 breast, in the assay with TK-10 renal, in the assay with MDA-N, in the assay on OVCAR-5 ovarian, in the assay with SK-MEL-28 melanoma and with HCC-2998 colon was more than 100 µM each time. The molecule further returned a TGI in the assay with SR leukemia of more than 100 µM.
On to `CCCCCCCCCCCCCCCCOCC(COP(=O)([O-])OCC[N+](C)(C)C)OCCCCCCCCCCCCCCCC` (stereo unspecified), for which the TGI with LOX IMVI melanoma, in the assay with MALME-3M melanoma, in the assay on OVCAR-4 ovarian, with SNB-19 CNS, in the assay with A498 renal and in the assay with RXF 393 renal was more than 100 µM each time. Also, the TGI in the assay with RPMI-8226 leukemia, in the assay on HCT-116 colon, in the assay with OVCAR-5 ovarian, in the assay on SK-MEL-28 melanoma, in the assay on HCC-2998 colon and in the assay with HT29 colon was more than 100 µM in each case.
Take `COc1cc2c3c(n(CCCNCCCNCCCn4c5c(c6ccccc6c4=O)C(=O)c4ccccc4-5)c(=O)c2cc1OC)-c1cc2c(cc1C3=O)OCO2`: the GI50 in the assay on LOX IMVI melanoma is less than 0.01 µM; in the assay with HCT-116 colon, less than 0.015 µM; in the assay with BT-549 breast, less than 0.01 µM. Further, the TGI with LOX IMVI melanoma was less than 0.0361 µM; in the assay with HCT-116 colon, 0.263 µM; with BT-549 breast it was 1.1 µM.
Consider `CC(C)[C@](O)(C(=O)OCC1CC[N+]2([O-])CC[C@@H](O)C12)[C@H](C)O` (stereo partly specified), for which the TGI was more than 203 µM in the assay on LOX IMVI melanoma; more than 256 µM in the assay on MALME-3M melanoma; more than 375 µM in the assay with OVCAR-4 ovarian; more than 375 µM with SNB-19 CNS; more than 59.4 µM in the assay with A498 renal; more than 375 µM in the assay on RXF 393 renal. In addition, the TGI with RPMI-8226 leukemia was more than 375 µM; in the assay with HCT-116 colon, more than 256 µM; with OVCAR-5 ovarian it was more than 375 µM; in the assay with SK-MEL-28 melanoma it was more than 375 µM; in the assay on HCC-2998 colon it was more than 375 µM; with HT29 colon it was more than 375 µM.
Turning to `CC(C)(C)C(=O)C(C(c1ccccc1)N1CCOCC1)N1CCOCC1` (stereo unspecified), the TGI in the assay with LOX IMVI melanoma, with MALME-3M melanoma, in the assay with OVCAR-4 ovarian, with SNB-19 CNS, in the assay with A498 renal and in the assay with RXF 393 renal was more than 100 µM throughout. The TGI in the assay on MDA-MB-231 breast, with RPMI-8226 leukemia, with HCT-116 colon, in the assay with BT-549 breast, in the assay with TK-10 renal and in the assay on MDA-N was more than 100 µM each time. Also, the TGI in the assay on OVCAR-5 ovarian, in the assay on SK-MEL-28 melanoma, with HCC-2998 colon, with SR leukemia and in the assay with HT29 colon was more than 100 µM each time.
`COc1ccc(N2C(=O)C3c4[nH]c5cccc(C)c5c4C4CCC(C(C)(C)C)CC4C3C2=O)cc1` (stereo unspecified): the TGI in the assay with LOX IMVI melanoma is more than 10 µM; in the assay on MALME-3M melanoma it was more than 10 µM; in the assay on OVCAR-4 ovarian it was 2.26 µM; with SNB-19 CNS, more than 10 µM; with A498 renal, more than 10 µM; in the assay on RXF 393 renal, more than 10 µM. In addition, the TGI in the assay on MDA-MB-231 breast, with RPMI-8226 leukemia, in the assay with HCT-116 colon, with TK-10 renal, in the assay on MDA-N and in the assay with OVCAR-5 ovarian was more than 10 µM in each case. In addition, the TGI in the assay on SK-MEL-28 melanoma, in the assay with HCC-2998 colon, in the assay on SR leukemia and in the assay with HT29 colon was more than 10 µM each time.
